From US9598387B2 (Southern Research Institute, priority 2012, dated 2017)
Read-outs that look alike come from different tables or passages of the source.

How the values were obtained:
[1] = target: T1, human D3 dopamine receptor (Homo sapiens (Human), UniProt P35462); assay: Whole Cell Adenylyl Cyclase Assay, D3; assay type: cell-based; settings: inhibition of forskolin (100 μM) stimulated cAMP, normalized to quinpirole; compound conc ≥10× Ki (per compound); mean ± S.E.M.
Experimental: (§1) The intrinsic activity of the compounds was evaluated by determining their ability to inhibit forskolin-dependent (100 μM) stimulation of adenylyl cyclase activity using a whole cell assay. A whole cell-cyclic AMP accumulation assay was performed with stably transfected HEK cells expressing human D2 or D3 dopamine receptors. This assay is an adaptation of an earlier published method (Su et al., Cyclic Nucleotide Res. 1976, 2, 257-285). Details regarding this method have been published (Chu, W. et al. Bioorg. Med. Chem. 2005, 13, 77-87; Taylor, M. et al. Synapse 2010, 64, 251-266). Confluent (60-80%) HEK cells transfected with recombinant D2-like dopamine receptors were grown in DMEM/10% fetal calf serum containing geneticin in […] flasks. The endogenous ATP pool is radioactively labeled by preincubating the cells in serum-free DMEM/25 mM Hepes medium containing 2 μCi/mL of [2,8-^3H]-adenine (20-Ci/mmol) in a 5% CO2 incubator at 37° C. for 75 min. The radioactive medium was removed by aspiration. Serum-free DMEM (5.6 mL) containing 25 mM HEPES, pH 7.4, and 0.1 mM of the phosphodiesterase inhibitor isobutylmethylxanthine was added to the flask. A […] aliquot of cells was removed and added to 50 μL of forskolin (100 μM) and 50 μL of test drug or quinpirole in DMEM-HEPES. The cells were incubated for 20 min at 37° C. (vortexing every 5 min). The reaction was terminated by the addition of 0.5 mL of 10% trichloroacetic acid (w/v) containing 1.0 mM unlabeled cyclic AMP as a recovery standard. Both the [^3H]-cyclic AMP and the [^3H]-ATP fractions were collected following separation using columns of Dowex AG-50W-X4 and alumina. The final yield of [^3H]-cyclic AMP is corrected for column recovery of unlabeled cyclic AMP determined spectrophotometrically (OD259). The results are reported as percent conversion of [^3H]-ATP into [^3H]-cyclic AMP. The values for the percent inhibition are reported as the actual percent of inhibition of the ^3H-cAMP accumulation relative to the assay performed in the absence of a test compound, minus basal activity. […] The percent maximum response is the value for the inhibition normalized to the value for the full agonist quinpirole.

[2] = target: T1, human D3 dopamine receptor; assay: Radioligand binding (125I-IABN competition), D3; settings: for Ki: 125I-IABN competition, HEK cell membranes expressing human D3; for D2/D3 (D3 selectivity ratio, D2 Ki/D3 Ki): calculated D2 Ki/D3 Ki
Experimental: (§2) The affinities of the target compounds were determined using radioligand binding experiments. […] Competition curves were modeled for a single site. Data from competition dose-response curves were analyzed using Tablecurve program (Jandel). IC50 values were converted to equilibrium dissociation constants (Ki values) using the Cheng and Prusoff correction.

D3R = D3R (Homo sapiens (Human), UniProt P35462); assay: D3 Mitogenesis Functional Assay (3H-thymidine uptake, CHOp-D3 cells); assay type: cell-based; settings: for Emax at 10 µM: % maximum stimulation vs quinpirole (100%), read-out: D3 Agonist Emax; for D3 Antagonist Imax: inhibition of quinpirole stimulation of mitogenesis; for IC50: read-out: D3 Antagonist IC50
D3R, sequence (P35462 whole entry): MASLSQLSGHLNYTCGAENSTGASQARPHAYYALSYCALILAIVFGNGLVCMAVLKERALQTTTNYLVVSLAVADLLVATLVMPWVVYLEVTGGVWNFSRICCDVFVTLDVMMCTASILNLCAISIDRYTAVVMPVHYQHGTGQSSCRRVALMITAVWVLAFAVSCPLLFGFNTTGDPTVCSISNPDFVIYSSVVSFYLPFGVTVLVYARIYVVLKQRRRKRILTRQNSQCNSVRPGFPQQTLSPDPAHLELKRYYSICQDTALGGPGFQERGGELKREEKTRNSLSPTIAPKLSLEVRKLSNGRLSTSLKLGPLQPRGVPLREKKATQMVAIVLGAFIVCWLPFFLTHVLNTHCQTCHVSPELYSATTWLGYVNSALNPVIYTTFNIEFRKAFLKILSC
Experimental: (§3) These assays are based on ^3H-thymidine uptake by cells that are proliferating.
CHO cells expressing human D3 receptors (CHOp-D3 cells) were maintained in alpha-MEM with 10% fetal bovine serum (FBS, Atlas Biologicals), 0.05% pen-strep, and 200 μg/ml of G418. […] The cells are incubated at 37° C. in alpha-MEM with 10% FBS. After 48-72 hours, the cells are rinsed twice with serum-free alpha-MEM and incubated for 24 hours at 37° C. Serial dilutions of test compounds were made by the Biomek robotics system in serum-free alpha-MEM. In the functional assay for agonism, the medium is removed and replaced with 100 μL of test compound in serum-free alpha-MEM. In the antagonist assay, the serial dilution of the putative antagonist test compound was added in 90 μL (1.1× of final concentration) and 300 nM quinpirole (30 nM final) was added in 10 uL. After another 16-hour incubation at 37° C., 0.25 μCi of [^3H]thymidine in alpha-MEM supplemented with 10% FBS was added to each well and the plates were further incubated for 2 hours at 37° C. The cells were trypsinized by addition of 10× trypsin solution (1% trypsin in calcium-magnesium-free phosphate-buffered saline) and the plates were filtered and counted as usual. Quinpirole was run as an internal control and dopamine was included for comparative purposes. Butaclamol was run as the standard antagonist. Data were analyzed using GraphPAD Prism and agonist potency was expressed as EC50 values or % stimulation and antagonist potency was expressed as IC50 values. In these assays, based on the % maximum stimulation as compared to the standard agonist quinpirole (100%) the compounds were classified into following categories: ≧90% full agonist; 70-90% partial to full agonist; <70% partial agonist; 0-20% potential antagonist.

[3] = target: human D2-long dopamine receptor (Homo sapiens (Human), UniProt P14416); assay: Radioligand binding (125I-IABN competition), D2; settings: HEK cell membranes expressing human D2-long
human D2-long dopamine receptor, sequence (P14416 whole entry): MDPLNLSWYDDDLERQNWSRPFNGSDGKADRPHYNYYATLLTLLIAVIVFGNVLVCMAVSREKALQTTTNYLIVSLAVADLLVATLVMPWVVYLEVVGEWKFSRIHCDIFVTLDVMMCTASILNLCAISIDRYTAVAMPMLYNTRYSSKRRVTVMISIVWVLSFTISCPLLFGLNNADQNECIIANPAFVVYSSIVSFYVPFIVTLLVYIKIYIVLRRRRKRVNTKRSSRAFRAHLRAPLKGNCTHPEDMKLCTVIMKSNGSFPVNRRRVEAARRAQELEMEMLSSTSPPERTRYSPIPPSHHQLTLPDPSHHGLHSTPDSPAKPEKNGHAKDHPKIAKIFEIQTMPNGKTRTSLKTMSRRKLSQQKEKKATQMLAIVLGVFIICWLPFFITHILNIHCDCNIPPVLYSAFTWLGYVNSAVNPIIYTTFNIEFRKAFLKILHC
Experimental: as §2

human D2 receptors = human D2 receptors (Homo sapiens (Human), UniProt P14416); assay: D2 Mitogenesis Functional Assay (3H-thymidine uptake, CHOp-D2 cells); assay type: cell-based; settings: for Emax at 10 µM: % maximum stimulation vs quinpirole (100%), read-out: D2 Agonist Emax; for Emax at 10 µM / D2 Antagonist Imax: at 10 μM; for D2 Antagonist Imax: inhibition of quinpirole stimulation of mitogenesis; for IC50: read-out: D2 Antagonist IC50
human D2 receptors, sequence (P14416 whole entry): as above
Experimental: as §3
CHO cells expressing human D2 receptors (CHOp-D2 cells) were maintained in alpha-MEM with 10% FCS, 0.05% pen-strep, and 200 μg/mL of G418. […] The cells were incubated at 37° C. in alpha-MEM with 10% FCS. After 48-72 hours, the cells were rinsed twice with serum-free alpha-MEM and incubated for 24 hours at 37° C. Serial dilutions of test compounds were made by the Biomek robotics system in serum-free alpha-MEM. In the functional assay for agonism, the medium was removed and replaced with 100 μL of test compound in serum-free alpha-MEM. In the antagonist assay, the serial dilution of the putative antagonist test compound was added in 90 μL (1.1× of final concentration) and 300 nM quinpirole (30 nM final) was added in […]. After another 24-hour incubation at 37° C., 0.25 μCi of [^3H]thymidine in alpha-MEM supplemented with 10% FCS was added to each well and the plates were further incubated for 2 hours at 37° C. The cells were trypsinized by addition of 10× trypsin solution (1% trypsin in calcium-magnesium-free phosphate-buffered saline) and the plates were filtered and counted as usual. Quinpirole was run as an internal control and dopamine was included for comparative purposes. Butaclamol was run as the standard antagonist.

[4] = target: human D2 dopamine receptors (Homo sapiens (Human), UniProt P14416); assay: Whole Cell Adenylyl Cyclase Assay, D2; assay type: cell-based; settings: inhibition of forskolin (100 μM) stimulated cAMP, normalized to quinpirole; compound conc ≥10× Ki (per compound); mean ± S.E.M.
human D2 dopamine receptors, sequence (P14416 whole entry): as above
Experimental: as §1

[5] = inhibition of quinpirole (30 nM final) stimulation of mitogenesis

T1 sequence (P35462 whole entry): as the sequence (P35462 whole entry) above

| SMILES | D3 Cyclase % Inhibition Normalized [1] [%] | Ki [2] [µM] | D2/D3 (D3 selectivity ratio, D2 Ki/D3 Ki) [2] | EC50 (D3R; CHOp-D3 cells, stimulation of mitogenesis, read-out: D3 Agonist EC50) [µM] | Emax at 10 µM (D3R) [%] | D3 Antagonist Imax (D3R) [%] | IC50 (D3R) [µM] | Ki [3] [µM] | EC50 (human D2 receptors; CHOp-D2 cells, stimulation of mitogenesis, read-out: D2 Agonist EC50) [µM] | Emax at 10 µM (human D2 receptors) [%] | D2 Antagonist Imax (human D2 receptors) [% at 10 μM] | IC50 (human D2 receptors) [µM] | IC50 (human D2 receptors; [5]) [µM] | IC50 (D3R; [5]) [µM] | D2 Cyclase % Inhibition Normalized [4] [%] |
| --- | --- | --- | --- | --- | --- | --- | --- | --- | --- | --- | --- | --- | --- | --- | --- |
| CC(C)(C)c1nc(N2CCN(CCCCNC(=O)C3CCC(c4ccccc4)CC3)CC2)cc(C(F)(F)F)n1 (stereo not drawn) [Compound 103, N-(4-(4-(2-(tert-Butyl)-6-(trifluoromethyl)pyrimidin-4-yl)piperazin-1-yl)butyl)-4-phenylcyclohexanecarboxamide] | 51.6 ± 13.4 | – | – | – | – | – | – | – | – | – | – | – | – | – | – |
| CC(C)(C)c1nc(N2CCN(CCCCNC(=O)N3CCN(c4ncccn4)CC3)CC2)cc(C(F)(F)F)n1 [Compound 32, N-(4-(4-(2-(tert-Butyl)-6-(trifluoromethyl)pyrimidin-4-yl)piperazin-1-yl)butyl)-4-(pyrimidin-2-yl)piperazine-1-carboxamide] | 40.8 ± 9.7 | 0.0137 ± 0.0031 | 87 | > 10 | < 8 | 84.4 | 0.195 ± 0.039 | 1.19 ± 0.0674 | > 10 | < 1 | 100 | 0.257 ± 0.09 | – | – | – |
| CC(C)(C)c1nc(N2CCN(CCCCNC(=O)c3cn4nc(Cl)ccc4n3)CC2)cc(C(F)(F)F)n1 [Compound 116, N-(4-(4-(2-(tert-Butyl)-6-(trifluoromethyl)pyrimidin-4-yl)piperazin-1-yl)butyl)-6-chloroimidazo[1,2-b]pyridazine-2-carboxamide] | 31.5 ± 7.0 | – | – | – | < 1 | – | – | 0.655 ± 0.0806 | – | < 1 | – | – | 1.16 ± 0.11 | – | – |
| Cc1nc(N2CCN(CCCCNC(=O)N3CCN(c4ccccc4)CC3)CC2)cc(C(C)(C)C)n1 [Compound 6, N-(4-(4-(6-(tert-Butyl)-2-methylpyrimidin-4-yl)piperazin-1-yl)butyl)-4-phenylpiperazine-1-carboxamide] | 26.4 ± 4.6 | 0.0292 ± 0.0053 | 442 | – | – | – | – | 12.9 ± 2.51 | – | – | – | – | – | – | – |
| O=C(NCCCCN1CCN(c2ccnc3ccccc23)CC1)c1cn2ccccc2n1 [Compound 117, N-(4-(4-(Quinolin-4-yl)piperazin-1-yl)butyl)imidazo[1,2-a]pyridine-2-carboxamide] | – | 0.0205 ± 0.0035 | 28 | – | < 20 | 97.2 | – | 0.572 | – | – | – | – | – | 0.12 ± 0.022 | – |
| N#Cc1cc(N2CCN(CCCCNC(=O)N3CCN(c4ccccc4)CC3)CC2)cc(C(F)(F)F)c1 [Compound 4, N-(4-(4-(3-Cyano-5-(trifluoromethyl)phenyl)piperazin-1-yl)butyl)-4-phenylpiperazine-1-carboxamide] | 8.2 ± 4.2 | 0.0041 ± 0.001 | 72 | – | – | – | – | 0.294 ± 0.0596 | – | – | – | – | – | – | −9.2 ± 8.3 |
| Cc1cc(N2CCN(CCCCNC(=O)N3CCC(n4c(=O)[nH]c5ccccc54)CC3)CC2)nc(C(C)(C)C)n1 [Compound 52, N-(4-(4-(2-(tert-Butyl)-6-methylpyrimidin-4-yl)piperazin-1-yl)butyl)-4-(2-oxo-2,3-dihydro-1H-benzo[d]imidazol-1-yl)piperidine-1-carboxamide] | 11.6 ± 3.1 | 0.0073 ± 0.0016 | 93 | – | – | – | – | 0.68 ± 0.135 | – | – | – | – | – | – | −5.9 ± 5.4 |
| CC(C)(C)c1nc(N2CCN(CCCCNC(=O)c3cn4cccnc4n3)CC2)cc(C(F)(F)F)n1 [Compound 114, N-(4-(4-(2-(tert-Butyl)-6-(trifluoromethyl)pyrimidin-4-yl)piperazin-1-yl)butyl)imidazo[1,2-a]pyrimidine-2-carboxamide] | – | 0.0118 ± 0.0011 | 37 | – | 14 | – | – | 0.435 ± 0.0434 | – | < 1 | – | – | 0.205 ± 0.048 | 0.051 ± 0.021 | – |
| O=C(NCCCCN1CCN(c2cccc(Cl)c2Cl)CC1)N1CCC(c2ccccc2)CC1 [Compound 47, N-(4-(4-(2,3-Dichlorophenyl)piperazin-1-yl)butyl)-4-phenylpiperidine-1-carboxamide] | 78.9 ± 17.1 | 0.0019 ± 0.0004 | 53 | – | < 20 | 96.8 | 0.04 ± 0.015 | 0.102 ± 0.011 | – | < 20 | 98.5 | 0.286 ± 0.027 | – | – | – |
| CC(C)(C)c1nc(N2CCN(CCCCNC(=O)c3cn4ccncc4n3)CC2)cc(C(F)(F)F)n1 [Compound 115, N-(4-(4-(2-(tert-Butyl)-6-(trifluoromethyl)pyrimidin-4-yl)piperazin-1-yl)butyl)imidazo[1,2-a]pyrazine-2-carboxamide] | 37.8 ± 5.4 | 0.008 ± 0.0016 | 56 | – | < 20 | 94.7 | – | 0.45 | – | < 20 | 96.6 | – | 0.42 ± 0.12 | 0.245 ± 0.033 | – |
| CC(C)(C)c1nc(N2CCN(CCCCNC(=O)N3CCN(c4ccccc4)CC3)CC2)c2ccccc2n1 [Compound 13, N-(4-(4-(2-(tert-Butyl)quinazolin-4-yl)piperazin-1-yl)butyl)-4-phenylpiperazine-1-carboxamide] | 61.9 ± 6.4 | 0.0431 ± 0.0048 | 94 | – | – | – | – | 4.04 ± 0.965 | – | – | – | – | – | – | – |
